The target of the test is Acetylcholinesterase (Homo sapiens, UniProt P22303).
Chain of Acetylcholinesterase (P22303 whole entry): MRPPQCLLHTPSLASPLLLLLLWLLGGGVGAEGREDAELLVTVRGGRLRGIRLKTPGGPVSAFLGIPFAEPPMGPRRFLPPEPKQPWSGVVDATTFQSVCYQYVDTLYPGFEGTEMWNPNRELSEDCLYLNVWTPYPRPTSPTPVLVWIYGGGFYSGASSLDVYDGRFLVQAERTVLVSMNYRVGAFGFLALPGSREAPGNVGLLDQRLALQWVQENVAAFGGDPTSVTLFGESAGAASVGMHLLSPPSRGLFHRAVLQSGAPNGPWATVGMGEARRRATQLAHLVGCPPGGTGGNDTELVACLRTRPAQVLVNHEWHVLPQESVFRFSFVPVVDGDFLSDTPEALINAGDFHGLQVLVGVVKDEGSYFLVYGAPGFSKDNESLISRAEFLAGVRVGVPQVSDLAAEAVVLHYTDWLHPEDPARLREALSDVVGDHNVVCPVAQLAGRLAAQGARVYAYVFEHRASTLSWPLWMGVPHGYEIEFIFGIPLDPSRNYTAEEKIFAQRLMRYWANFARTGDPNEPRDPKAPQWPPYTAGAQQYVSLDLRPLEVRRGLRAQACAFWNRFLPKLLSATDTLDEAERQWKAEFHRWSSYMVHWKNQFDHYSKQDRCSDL
In the case of `O=C1c2ccc([N+](=O)[O-])cc2C(=O)N1CCC1CCN(Cc2ccc(Cl)cc2)CC1`, the IC50 (commonly the concentration that inhibits the measured activity by half) was determined as 240 nM. Then `O=C(C1CCCCC1)N(CCC1CCN(Cc2ccccc2)CC1)c1ccccc1`, with 9400 nM. Then `O=C(CCC1CCN(Cc2ccccc2)CC1)c1ccc2c(c1)NCCC2`, with 164 nM; and `CCCN1CCc2cc(C(=O)CCC3CCN(Cc4ccccc4)CC3)ccc21`, with 22 nM.

`COc1cc2c(cc1OC)C(O)C(CC1CCN(c3ccccc3)CC1)C2` (configuration not stated) came in with an IC50 of 300 nM. Then `c1ccc(C2=NNC(NCN3CCCCC3)=NC2)cc1`, with 47000 nM; and `O=C(CCC1CCN(Cc2cccc([N+](=O)[O-])c2)CC1)c1ccc2c(c1)NCCCC2`, with 390 nM; and `CCCCCCNC(=O)Oc1ccc2c(c1)[C@@H]1CCN(CC)[C@@H]1C2`, with 208 nM.

`O=C1c2ccccc2CCN1CCC1CCN(Cc2ccccc2)CC1` registered an IC50 of 1000 nM. Then `CC1=C(C)c2nc3ccccc3c(N)c2C1`, with 3500 nM. As for `c1ccc(CN2CCC(CNc3nsc4ccccc34)CC2)cc1`, the figure is 99 nM. As for `CCCCCCNC(=O)Oc1cccc(CN(C)CCCOc2ccc3c(=O)c4cccnc4oc3c2)c1`, the figure is 42 nM; as for `O=[N+]([O-])c1ccc2nc3c(c(Nc4ccccc4)c2c1)CCCC3`, 1600 nM. Consider `NCCCCCCCCCCCCNc1c2c(nc3ccccc13)CCCC2`, for which the midpoint of inhibition, the IC50, lay at 180 nM. As for `CN1CCC(CCN2C(=O)c3ccc([N+](=O)[O-])cc3C2=O)CC1`, the figure is 6800 nM; as for `CNC(=O)Oc1cccc(CN(C)CCCCCCCOc2ccc3c(c2)C/C(=C\c2cc(O)c(O)c(O)c2)C3=O)c1`, 1.8 nM; as for `CNC(=O)Oc1cccc(CN(C)CCCCCCCOc2ccc3c(c2)O/C(=C\c2cccc4ccccc24)C3=O)c1`, 2.09 nM. `NCCCCCCCCNc1c2c(nc3ccccc13)CCCC2` displayed an IC50 of 89 nM.

The compound `O=C(CCc1c[nH]c2ccccc12)NCCCCCNc1c2c(nc3ccccc13)CCCC2` came in with a half-inhibitory concentration (IC50) of 70 nM. The IC50 values of the last two compounds are within 1.5-fold of each other. Then `O=C(CCC1CCN(Cc2ccccc2)CC1)c1ccc2c(c1)N(Cc1ccccc1)CCCC2`, with 3140 nM; and `O=C(c1ccc([N+](=O)[O-])cc1)N(CCC1CCN(Cc2ccccc2)CC1)c1ccccc1`, with 5.4 nM; and `c1ccc2c(NCCCCCCNc3c4c(nc5ncccc35)CCCCC4)c3c(nc2c1)CCCCC3`, with 2.5 nM. With `CC1Cc2c(nc3ccccc3c2N)C1(C)O` (configuration not stated), the 50% inhibitory concentration (IC50) was determined as 134000 nM.

As to `CN(C)C(=O)Oc1ccc(-c2cn3ccccc3[n+]2C)cc1`, the IC50 amounted to 17100 nM. Then `O=C(OC1Cc2c(O)cc(O)cc2OC1c1ccc(O)c(O)c1)c1cc(O)c(O)c(O)c1` (configuration not stated), with 28000 nM; and `O=C1c2ccccc2C(=O)N1CCC1CCN(Cc2ccccc2)CC1`, with 80 nM. Then `COc1cccc2n1cc(-c1cccc(OC(=O)N(C)C)c1)[n+]2C`, with 20500 nM. In turn, `OCc1cc(-c2ccccc2)nnc1NCCN1CCOCC1` registered an IC50 of 440000 nM. As for `CCCCC1(O)c2nc3ccccc3c(N)c2CC1C` (configuration not stated), inhibition was half-maximal at 91000 nM (IC50). Then `O=C1Cc2ccccc2CN1CCC1CCN(Cc2ccccc2)CC1`, with 17 nM; and `O=C(NCCCCCNc1c2c(nc3cc(Cl)ccc13)CCCC2)c1c[nH]c2ccccc12`, with 180 nM; and `CNC(=O)Oc1cccc(CN(C)CCCCCCCOc2ccc3c(c2)O/C(=C\c2cc(O)c(O)c(O)c2)C3=O)c1`, with 0.52 nM. In the case of `O=C1c2ccccc2NCN1CCC1CCN(Cc2ccccc2)CC1`, half-maximal inhibition (IC50) was put at 800 nM. Then `Clc1ccc2c(Nc3ccccc3)c3c(nc2c1)CCCC3`, with 170 nM; and `CN(CCNc1ccc(-c2ccccc2)nn1)Cc1ccccc1`, with 170000 nM. As for `c1ccc(-c2ccc(NCCN3CCc4ccccc4C3)nn2)cc1`, the figure is 83000 nM; as for `CCCCCCNC(=O)Oc1cccc(CN(C)CCCCOc2ccc3c(=O)c4ccccc4oc3c2)c1`, 100 nM. As for `O=C(c1ccccc1)c1ccc2c(c1)C(=O)N(CCC1CCN(Cc3ccccc3)CC1)C2=O`, the figure is 2.4 nM. The compound `CN(C)C(=O)Oc1cccc(-c2cn3ccccc3[n+]2C)c1` registered a concentration for half-maximal inhibition (IC50) of 7100 nM. As for `CCCCCCNC(=O)Oc1cccc(CN(CC)CCCOc2ccc3c(=O)c4ccccc4oc3c2)c1`, the figure is 160 nM. Then `COc1ccc(/N=C/c2cn(-c3ccc(OC)cc3)cc2/C=N/c2ccc(OC)cc2)cc1`, with 14000 nM; and `CN(CCCCNc1ccc(-c2ccccc2)nn1)Cc1ccccc1`, with 11000 nM; and `COc1cc(N)c(Cl)cc1C(=O)NC1CCN(Cc2ccccc2)CC1` [CLEBOPRIDE], with 890 nM. As for `CCCCCCCNC(=O)Oc1ccc2c(c1)C1CCN(CCC)C1C2` (configuration not stated), the figure is 629 nM; as for `Cc1cccc2n1cc(-c1cccc(OC(=O)N(C)C)c1)[n+]2C`, 24000 nM; as for `CC(Cc1ccc(O)cc1)C1CCC(C)C(c2ccc(O)cc2)C1` (configuration not stated), 620 nM. The compound `Cc1ccc2nc3c(c(Nc4ccccc4)c2c1)CCCC3` yielded an IC50 of 3700 nM. This IC50 lies about 6-fold higher than the previous one. Then `CCCCCCCNC(=O)Oc1ccc2c(c1)[C@@H]1CCN(CC)[C@@H]1C2`, with 381 nM. Then `CNC(=O)Oc1cccc(CN(C)CCCOc2ccc3c(c2)O/C(=C\c2cc(O)c(O)c(O)c2)C3=O)c1`, with 2.99 nM; and `CN1CCCc2cc(C(=O)CCC3CCN(Cc4ccccc4)CC3)ccc21`, with 24 nM.

With `CCCCC1=C(C)Cc2c1nc1ccccc1c2N`, inhibition was half-maximal at 25000 nM (IC50).

The compound `CCCNC(=O)Oc1ccc2c(c1)[C@]1(C)CCN(CC)[C@@H]1C2` returned an IC50 of 154 nM. As for `CCCCCCNC(=O)Oc1cccc(CN(C)CCCOc2ccc3c(=O)cc(-c4ccccc4)oc3c2)c1`, the figure is 68 nM; as for `c1ccc(CN2CCC(CCNc3ccc(-c4ccccc4)nn3)CC2)cc1`, 120 nM; as for `O=C(CCc1c[nH]c2ccccc12)NCCCCCCCCNc1c2c(nc3cc(Cl)ccc13)CCCC2`, 0.5 nM. `O=C1CNc2cc3onc(CCC4CCN(Cc5ccccc5)CC4)c3cc2C1` had a half-maximal inhibitory concentration (IC50) of 0.48 nM. The IC50 values of the last two compounds are within 1.5-fold of each other. Then `c1ccc2c(NCCCCCCCNc3c4c(nc5ccccc35)CCC4)c3c(nc2c1)CCC3`, with 75 nM; and `CN(C)C(=O)Oc1ccc(-c2cn3c(NC=O)cccc3[n+]2C)cc1`, with 1200 nM; and `CN(CCOCCNC(=S)NC(=O)c1ccc(-c2ccccc2)cc1)Cc1ccccc1`, with 230 nM.

Compound `O=C(Nc1ccccc1)c1ccc2c(c1)C(=O)N(CCC1CCN(Cc3ccccc3)CC1)C2=O` yielded an IC50 of 2.2 nM. For `NCCCCCCCNc1c2c(nc3ccccc13)CCCC2`, the IC50 is 319 nM. As for `CN(C)CCCCCCCCCCNc1c2c(nc3ccccc13)CCCC2`, the figure is 45 nM. Then `FC(F)(F)c1cc(-c2ccccc2)nnc1NCCN1CCOCC1`, with 740000 nM; and `CN(C)C(=O)Oc1ccc(-c2cn3c(NC(=O)c4ccccc4)cccc3[n+]2C)cc1`, with 200 nM.

With `CNC(=O)Oc1ccc(-c2cn3ccccc3[n+]2C)cc1`, the IC50 is 19500 nM. Then `c1ccc(CN2CCC(CNc3n[nH]c4ccccc34)CC2)cc1`, with 120 nM. Regarding `O=C(CCc1c[nH]c2ccccc12)NCCCCCCNc1c2c(nc3ccccc13)CCCC2`, the IC50 was determined as 0.02 nM. As for `CNC(=O)Oc1ccc(-c2cn3c(C)cccc3[n+]2C)cc1`, the figure is 4000 nM; as for `O=c1c2ccccc2ccn1CCC1CCN(Cc2ccccc2)CC1`, 1100 nM. Then `CN(C)C(=O)Oc1cccc(-c2cn3c(C(F)(F)F)cccc3[n+]2C)c1`, with 33600 nM; and `Fc1ccc(N(Cc2ccc3c(c2)OCO3)C(=S)Nc2cccc(C(F)(F)F)c2)cc1`, with 8000 nM; and `CN(CCOCCNC(=S)NC1CCCCC1)Cc1ccccc1`, with 1400 nM. Then `O=C(CCc1c[nH]c2ccccc12)NCCCCCCCNc1c2c(nc3ccccc13)CCCC2`, with 0.06 nM. Regarding `CN(CCOCCNC(=S)Nc1cccc2ccccc12)Cc1ccccc1`, the IC50 was 10000 nM. Then `CCCNC(=O)Oc1ccc2c(c1)C1CCN(CC)C1C2` (configuration not stated), with 2190 nM; and `Cc1cc(-c2ccc3c(c2)OCO3)nnc1NCCN1CCCCC1`, with 1000 nM. As for `O=C(CCC1CCN(Cc2ccccc2)CC1)c1ccc2c(c1)CCN2c1ccccc1`, the figure is 68 nM. As for `Cn1cc(C(=O)NCCCCCCCNc2c3c(nc4cc(Cl)ccc24)CCCC3)c2ccccc21`, the figure is 10.9 nM; as for `O=C(CCC1CCN(Cc2cccc(F)c2)CC1)c1ccc2c(c1)CCN2`, 16 nM; as for `O=C(CCC1CCN(Cc2ccccc2)CC1)c1ccc2c(c1)CCCN2`, 54 nM.

Take `CCN1CCCC1CNc1ccc(-c2ccccc2)nn1` (configuration not stated): half-maximal inhibition (IC50) was put at 62000 nM.

In turn, `c1ccc2c(NCCCCCCCCNc3c4c(nc5ccccc35)CCCC4)ccnc2c1` yielded a 50% inhibitory concentration (IC50) of 8.8 nM. Compared with the last compound, the IC50 is about 7000-fold lower.

As for `CCCCCCNC(=O)Oc1cccc(CN(CCC)CCCOc2ccc3c(=O)c4ccccc4oc3c2)c1`, the IC50 was determined as 400 nM. This IC50 lies about 45-fold higher than the previous one.

Consider `O=C(CCCc1c[nH]c2ccccc12)NCCCCCNc1c2c(nc3cc(Cl)ccc13)CCCC2`, for which inhibition was half-maximal at 0.3 nM (IC50). Then `O=C1c2ccccc2CCC1CC1CCN(c2ccccc2)CC1` (configuration not stated), with 2100 nM; and `c1ccc2c(NCCCCCCCNc3c4c(nc5ccccc35)CCCC4)ccnc2c1`, with 10.1 nM; and `CCCCCCNC(=O)Oc1cccc(CN(C)CCCOc2ccc3c(=O)ccoc3c2)c1`, with 21 nM. As for `C[n+]1c(-c2ccccc2)cn2cc(C(N)=O)ccc21`, the figure is 9500 nM; as for `O=C(CCC1CCN(Cc2ccc(Cl)cc2)CC1)c1ccc2c(c1)CCN2`, 6360 nM. Then `O=C(Cc1c[nH]c2ccccc12)NCCCCCCCNc1c2c(nc3cc(Cl)ccc13)CCCC2`, with 0.2 nM; and `CC(=O)Nc1ccc2c(c1)C(=O)N(CCC1CCN(Cc3ccccc3)CC1)C2=O`, with 2.8 nM.

For `Nc1c2c(nc3ccccc13)CCCc1ccccc1-2`, half-maximal inhibition (IC50) required 38200 nM. Then `N#Cc1cc(-c2ccccc2)nnc1NCCN1CCOCC1` [BAZINAPRINE], with 100000 nM. Then `COc1cccc2n1cc(-c1ccc(OC(=O)N(C)C)cc1)[n+]2C`, with 8100 nM; and `O=C1Nc2ccccc2CN1CCC1CCN(Cc2ccccc2)CC1`, with 13 nM; and `Cc1ccc(C(=O)NC(=S)NCCOCCN(C)Cc2ccccc2)cc1`, with 77 nM. Then `CCN(CCOCCNC(=O)NCc1ccccc1)CC1CCCCC1`, with 10000 nM.

The record behind these values is ChEMBL document CHEMBL1155460, “Prediction of acetylcholinesterase inhibitors and characterization of correlative molecular descriptors by machine learning methods” (Eur J Med Chem, 2010).
